Results as given in paper PMC9298260, “An Immunomodulatory Peptide Dendrimer Inspired from Glatiramer Acetate” (Angewandte Chemie (International Ed. in English), 2021).

What was measured:
[1] = tested on: IL-1Ra release from human primary monocytes; assay: IL-1Ra release from human primary monocytes, immunoassay (ELISA) of supernatants; format: cell-based; parameters: key: +: Ability to induce IL-1Ra on primary monocytes after 48 h of incubation; Ability to induce IL-1Ra on primary monocytes after 48 h of incubation; conditions: for IL-1Ra: ability to induce IL-1Ra on primary monocytes after 48 h of incubation, class + / -; for Act. (ability to induce IL-1Ra): primary monocytes, 48 h
Protocol: (§1) As an activity screen we focused on interleukin‐1 receptor antagonist (IL‐1Ra), a cytokine released by circulating antigen presenting cells (APC) in response to GA.[15, 35] […] To test our dendrimers, we quantified by immunoassay the release of IL‐1Ra from human primary monocytes of healthy donors, an easily accessible type of APC, stimulated or not by addition of lipopolysaccharide (LPS), which in our hands provided a reliable read‐out.[15] We tested at defined weight/volume (25 and 50 μg mL^−1 compound as typically reported for GA)[15, 35] to account for a possible activity increase with MW as often observed with dendrimers when using molarity. In the initial screen the levels of secreted IL‐1Ra remained below 1 ng mL^−1 for all the smaller test compounds as well as with the linear peptide analogs of GA.
(§2) Figure 2 Cytokine level of IL‐1Ra in supernatants of primary human monocytes of healthy donors treated with peptide dendrimers, evaluated by ELISA (bars, left vertical axis) and mRNA levels (▴, right vertical axis). […] For mRNA levels evaluation, 2×10^6 cells 3 mL^−1 in 6 well plates were incubated with 50 μg mL^−1 dendrimer or GA for 18 h. […]
(§3) Enzyme-linked immunosorbent assay (ELISA)
(§4) Monocytes (5×10^4 cells/200 μL well; 96-well plates) were preincubated for 1 h with or without compounds in RPMI-1640 medium supplemented with 10% heat-inactivated FBS, 50 μg/mL streptomycin, 50 U/mL penicillin, 2 mM L-glutamine, and 5 μg/mL polymyxin B sulfate and then cultured for 48 h in the presence or absence of LPS (100 ng/mL) (2). The production of IL-1Ra was measured in culture supernatants by commercially available enzyme immunoassay according to manufacture protocol.
(§5) Figure S2. Cytokine level of IL-1Ra in supernatants of monocytes for active dendrimers and analogues evaluated by ELISA assay on primary human monocytes of healthy donors. 5×10^4 cells/200 µL in 96 well plates, were incubated with dendrimers or GA as a control for 48 h in presence or absence of LPS (100 ng/mL), in a range of concentrations (50-25 µg/mL) (mean ± SD, n = 2 different experiments). The results are present as the difference between each sample and the non-treated sample to take into account the difference between base line for each donor.
(§6) Figure S3. Cytokine level of IL-1Ra in supernatants of monocytes for active dendrimers and […]
(§7) presence or absence of LPS (100 ng/mL), in a range of concentrations (100-12.5 µg/mL) (mean ± SD, n = 3 different experiments). […]

[2] = tested on: IL-1Ra release from human primary monocytes; assay: as above; format: cell-based; parameters: key: +: Ability to induce IL‐1Ra on primary monocytes after 48 h of incubation in the presence of 25–50 μg mL^−1 compound; Ability to induce IL‐1Ra on primary monocytes after 48 h of incubation in the presence of 25–50 μg mL^−1 compound; conditions: for Act. (ability to induce IL-1Ra): Table 1, 48 h, 25–50 μg mL^−1 compound; for IL-1Ra: 48 h
Protocol: as §1, §2, §3, §4, §5, §6, §7

(AK)4(KAEAKAKE)2KKEYEYC(Coumarin)A-NH2 [26Coum]
IL-1Ra [1]: -

(AK)4(KAEAKAKE)2KKEYEYCA-NH2 [compound 26]
IL-1Ra [1]: -

(AK)8(KAKAKY)4(KAKEYEY)2KAKEYEY-NH2 [compound 5]
Act. (ability to induce IL-1Ra) [2]: −
Act. (ability to induce IL-1Ra) ([1]; Table S1 initial library): -
IL-1Ra [1]: -

(AcAKA)4(KEK)2KYEY-OH [Ac11]
Act. (ability to induce IL-1Ra) ([1]; Table S1 initial library): -
IL-1Ra [1]: -

(AcAKA)4(KEY)2KYKK-NH2 [Ac15]
Act. (ability to induce IL-1Ra) ([1]; Table S1 initial library): -
IL-1Ra [1]: -

(AcAKA)4(KKEY)2KE-OH [Ac10]
Act. (ability to induce IL-1Ra) ([1]; Table S1 initial library): -
IL-1Ra [1]: -

(AcAKA)8(KYEK)4(KEKA)2KAKY-OH [Ac3]
Act. (ability to induce IL-1Ra) ([1]; Table S1 initial library): -
IL-1Ra [1]: -

(AcAKE)4(KAYA)2KKKK-NH2 [Ac16]
Act. (ability to induce IL-1Ra) ([1]; Table S1 initial library): -
IL-1Ra [1]: -

(AcAKE)4(KKAY)2KYKY-NH2 [Ac22]
IL-1Ra [1]: -

(AcAYK)4(KE)2KKAA-OH [Ac9]
Act. (ability to induce IL-1Ra) ([1]; Table S1 initial library): -
IL-1Ra [1]: -

(AcKAA)4(KYYE)2KAY-NH2 [Ac19]
IL-1Ra [1]: -

(AcKAE)4(KAEK)2KYYA-OH [Ac18]
Act. (ability to induce IL-1Ra) ([1]; Table S1 initial library): -
IL-1Ra [1]: -

(AcKAK)4(KAEY)2KAEA-OH [Ac20]
IL-1Ra [1]: -

(AcKEAKY)4(KKYEA)2KEKAYKA-NH2 [Ac27]
IL-1Ra [1]: -

(AcKYA)4(KEA)2KKKA-OH [Ac14]
Act. (ability to induce IL-1Ra) ([1]; Table S1 initial library): -
IL-1Ra [1]: -

(ClAcAKA)4(KEK)2KYEY-OH [ClAc11]
Act. (ability to induce IL-1Ra) ([1]; Table S1 initial library): -
IL-1Ra [1]: -

(ClAcAKA)4(KKEY)2KE-OH [ClAc10]
Act. (ability to induce IL-1Ra) ([1]; Table S1 initial library): -
IL-1Ra [1]: -

(ClAcAKA)8(KYEK)4(KEKA)2KAKY-OH [ClAc3]
Act. (ability to induce IL-1Ra) ([1]; Table S1 initial library): -
IL-1Ra [1]: -

(ClAcAKE)4(KKAY)2KYKY-NH2 [ClAc22]
IL-1Ra [1]: -

(ClAcK)4(KAYE)2KAKYAEA-NH2) [ClAc13]
Act. (ability to induce IL-1Ra) ([1]; Table S1 initial library): -
IL-1Ra [1]: -

(ClAcK)4(KEAKAKEY)2KAKEYEY-OH [ClAc25]
IL-1Ra [1]: -

(ClAcKA)4(KAYE)2KK-OH [ClAc6]
Act. (ability to induce IL-1Ra) ([1]; Table S1 initial library): -
IL-1Ra [1]: -

(ClAcKA)4(KEYA)2KKAK-OH [ClAc7]
Act. (ability to induce IL-1Ra) ([1]; Table S1 initial library): -
IL-1Ra [1]: -

(ClAcKAA)4(KYYE)2KAY-NH2 [AcCl19]
IL-1Ra [1]: -

(ClAcKAE)4(KAEK)2KYYA-OH [ClAc18]
Act. (ability to induce IL-1Ra) ([1]; Table S1 initial library): -
IL-1Ra [1]: -

(ClAcKEAKY)4(KKYEA)2KEKAYKA-NH2 [ClAc27]
IL-1Ra [1]: -

(ClAcKYA)4(KEA)2KKKA-OH [ClAc14]
Act. (ability to induce IL-1Ra) ([1]; Table S1 initial library): -
IL-1Ra [1]: -

(FumAKA)4(KEY)2KYKK-NH2 [Fum15]
Act. (ability to induce IL-1Ra) ([1]; Table S1 initial library): -
IL-1Ra [1]: -

(FumAKE)4(KAYA)2KKKK-NH2 [Fum16]
Act. (ability to induce IL-1Ra) ([1]; Table S1 initial library): -
IL-1Ra [1]: -

(K)4(KAYAEY)2KAKAEYA-NH2 [compound 17]
Act. (ability to induce IL-1Ra) ([1]; Table S1 initial library): -
IL-1Ra [1]: -

(KA)8(KAK)4(KEKA)2KAKEAYC(Fluo)A-NH2 [1Fl, analog of 1 bearing a fluorescein label at the dendrimer core]
Act. (ability to induce IL-1Ra) [2]: +
IL-1Ra ([2]; supplement s001.csv): +
IL-1Ra ([2]; supplement s003.zip SMILES csv): +
Act. (ability to induce IL-1Ra) ([1]; Table S2 analogs of 1 and 4): +
IL-1Ra [1]: +

(KAA)4(KEY)2KAKEYEYA-NH2 [compound 24]
IL-1Ra [1]: -

(KAA)8(KKAKAK)4(KAAKKY)2KEKAKCA-OH [compound 30]
IL-1Ra [1]: -

(KAEKAYA)4(KEKYAKA)2KEKYKA-NH2 [compound 2]
Act. (ability to induce IL-1Ra) [2]: −
Act. (ability to induce IL-1Ra) ([1]; Table S1 initial library): -
IL-1Ra [1]: -

(KAK)4(KEKA)2KAKEAYCA-NH2 [compound 33]
Act. (ability to induce IL-1Ra) [2]: −
Act. (ability to induce IL-1Ra) ([1]; Table S2 analogs of 1 and 4): -
IL-1Ra [1]: -

(KYA)4(KAE)2KAEYKCA-NH2 [compound 23]
IL-1Ra [1]: -

(YKAKAKY)4(KEAKAKY)2KAKEYEY-OH [compound 29]
IL-1Ra [1]: -
